Test results as given in PMC7382742, “Identification of Potential Inhibitors of Calcium/Calmodulin-Dependent Protein Kinase IV from Bioactive Phytoconstituents” (Oxidative Medicine and Cellular Longevity, 2020).

Columns and labels:
[1] = target: T1, Calcium/calmodulin-dependent protein kinase IV (CaMKIV) (Homo sapiens, UniProt Q16566); assay: malachite green (BIOMOL Green) ATPase inhibition assay with recombinant refolded CaMKIV; also intrinsic fluorescence quenching (binding constant […] ^-1); type: biochemical
T1 construct: gene CAMK4; CaMKIV kinase domain
T1 sequence (Q16566 46-300 limits assumed): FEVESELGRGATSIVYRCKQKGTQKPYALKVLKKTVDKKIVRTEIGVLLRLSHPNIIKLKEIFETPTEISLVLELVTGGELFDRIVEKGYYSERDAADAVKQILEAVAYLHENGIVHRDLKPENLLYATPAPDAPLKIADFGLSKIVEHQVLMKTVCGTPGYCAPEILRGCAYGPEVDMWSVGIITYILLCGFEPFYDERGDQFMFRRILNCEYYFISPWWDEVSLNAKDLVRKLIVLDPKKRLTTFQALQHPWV

[2] = target: T1, Calcium/calmodulin-dependent protein kinase IV (CaMKIV); assay: malachite green (BIOMOL Green) ATPase inhibition assay with recombinant refolded CaMKIV; also intrinsic fluorescence quenching (Ksv […] ^-1); type: biochemical

SMILES | IC50 [1] [µM] | IC50 [2] [µM]
O=c1oc2c(O)c(O)cc3c(=O)oc4c(O)c(O)cc1c4c23 [EA, ellagic acid] | 39.7 ± 8.6 | –
O=c1c(O)c(-c2ccc(O)c(O)c2)oc2cc(O)cc(O)c12 [quercetin] | – | 61.3 ± 5.4
